pKd: −log10 of the molar value. Where two headings read alike, the source gives them in different places. Where a SMILES comes first, the peptide text is derived from it. Bridges are numbered along the chain shown (N, C = ends). [ ]: non-standard residue; d: D form. The star is where a group is joined. hPhe(3-Cl-4-CF3) = N[C@@H](CCc1ccc(C(F)(F)F)c(Cl)c1)C(=O)O; NPrPhe(4-CF3) = CCCN[C@@H](Cc1ccc(C(F)(F)F)cc1)C(=O)O; NEtPhe(4-CF3) = CCN[C@@H](Cc1ccc(C(F)(F)F)cc1)C(=O)O; NMeGly(cPent) = CN[C@H](C(=O)O)C1CCCC1; NMeD = CN[C@@H](CC(=O)O)C(=O)O; NMeL = CN[C@@H](CC(C)C)C(=O)O; Morpholide = C1CN(*)CCO1; NMeA = CN[C@@H](C)C(=O)O; Ac5c = NC1(C(=O)O)CCCC1; Aze = O=C(O)[C@@H]1CCN1; Ac4c = NC1(C(=O)O)CCC1; Aib = CC(C)(N)C(=O)O; Sar = CNCC(=O)O
Tests used:
[1] = biological target: GDP-bound NRAS wild-type protein (Homo sapiens, UniProt P01111); test: Binding to NRAS by surface plasmon resonance (SPR), Single Cycle Kinetics
Sequence of GDP-bound NRAS wild-type protein (P01111 whole entry): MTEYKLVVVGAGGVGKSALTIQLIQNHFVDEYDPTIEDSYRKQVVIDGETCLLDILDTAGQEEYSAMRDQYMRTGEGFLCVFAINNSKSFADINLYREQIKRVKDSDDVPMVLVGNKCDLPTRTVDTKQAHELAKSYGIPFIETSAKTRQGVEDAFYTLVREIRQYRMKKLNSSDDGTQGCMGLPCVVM

[2] = biological target: GDP-bound HRAS wild-type protein (Homo sapiens, UniProt P01112); test: Binding to HRAS by surface plasmon resonance (SPR), Single Cycle Kinetics
Sequence of GDP-bound HRAS wild-type protein (P01112 whole entry): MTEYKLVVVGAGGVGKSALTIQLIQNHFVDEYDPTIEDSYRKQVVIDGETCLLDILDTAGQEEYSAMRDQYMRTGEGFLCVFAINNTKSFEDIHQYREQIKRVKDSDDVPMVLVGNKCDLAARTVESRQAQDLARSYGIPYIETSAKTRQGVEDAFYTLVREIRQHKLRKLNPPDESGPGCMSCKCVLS

[3] = biological target: GDP-bound KRAS wild-type protein (Homo sapiens, UniProt P01116); test: Binding to KRAS by surface plasmon resonance (SPR), Single Cycle Kinetics; details: GDP-bound KRAS wild-type protein, read-out: KRAS KD
Sequence of GDP-bound KRAS wild-type protein (P01116 whole entry): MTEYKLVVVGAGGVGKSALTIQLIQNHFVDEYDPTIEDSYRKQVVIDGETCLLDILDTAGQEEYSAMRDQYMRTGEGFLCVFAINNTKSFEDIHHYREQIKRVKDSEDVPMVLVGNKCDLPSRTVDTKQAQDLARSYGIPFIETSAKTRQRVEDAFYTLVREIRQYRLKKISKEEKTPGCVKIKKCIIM

[4] = SPR, GDP-bound NRAS wild-type protein vs GDP-bound KRAS wild-type protein
[5] = SPR, GDP-bound HRAS wild-type protein vs GDP-bound KRAS wild-type protein
[6] = SPR Single Cycle Kinetics, 1:1 binding model

| Compound | NRAS/KRAS (ratio of KD value for NRAS to KD value for KRAS) [1, 4] | HRAS/KRAS (ratio of KD value for HRAS to KD value for KRAS) [2, 5] | pKd ([3]; SPR, Single Cycle Kinetics) | pKd [3, 6] | NRAS/KRAS (ratio of KD value with respect to NRAS to KD value with respect to KRAS) [1, 4] | HRAS/KRAS (ratio of KD value with respect to HRAS to KD value with respect to KRAS) [2, 5] | NRAS/KRAS (ratio of KD value with respect to GDP-bound NRAS wild-type protein to KD value with respect to KRAS) ([1]; SPR KD ratio NRAS/KRAS, class symbols) | HRAS/KRAS (ratio of KD value with respect to GDP-bound HRAS wild-type protein to KD value with respect to KRAS) ([2]; SPR KD ratio HRAS/KRAS, class symbols) |
| --- | --- | --- | --- | --- | --- | --- | --- | --- |
| CCO[C@@H]1C[C@H]2C(=O)NC3(CCC3)C(=O)N(C)[C@@H](C3CCCC3)C(=O)N(C)[C@H](C(=O)N3CCCC3)CC(=O)N(C)[C@@H](CC)C(=O)N[C@@H]([C@@H](C)CC)C(=O)N(C)CC(=O)N(C)[C@H]3C/C=C\CCN(C3=O)[C@@H](Cc3ccc(C(F)(F)F)cc3)C(=O)N(C)CC(=O)N[C@@H](CCc3cc(F)c(C(F)(F)F)c(F)c3)C(=O)N2C1 [PP1090, (2S,8S,12R,14S,20S,23S,27S,30S,36S,38Z)-20-cyclopentyl-8-[2-[3,5-difluoro-4-(trifluoromethyl)phenyl]ethyl]-12-ethoxy-27-ethyl-4,19,22,26,32,35-hexamethyl-30-[(1S)-1-methylpropyl]-23-(pyrrolidine-1-carbonyl)-2-[[4-(trifluoromethyl)phenyl]methyl]spiro[1,4,7,10,16,19,22,26,29,32,35-undecazatricyclo[34.5.1.0^10,14]dotetracont-38-ene-17,1′-cyclobutane]-3,6,9,15,18,21,25,28,31,34,42-undecone] | AA (a compound having 20 or more is denoted as AA) | A (a compound having 10 or more and less than 20 is denoted as A) | 10.07 |  |  |  |  |  |
| CCCN1C(=O)CN(C)C(=O)[C@@H]2CCN2C(=O)[C@H]([C@@H](C)CC)NC(=O)[C@H](CC(C)C)N(C)C(=O)C[C@@H](C(=O)N2CCOCC2)NC(=O)[C@H](C2CCCC2)N(C)C(=O)C2(CCCC2)NC(=O)[C@@H]2CCCN2C(=O)[C@H](CCc2ccc(C(F)(F)F)c(Cl)c2)NC(=O)CN(C)C(=O)[C@@H]1Cc1ccc(C(F)(F)F)cc1 [PP0337] ([NMeL]I[Aze][Sar][NPrPhe(4-CF3)][Sar][hPhe(3-Cl-4-CF3)]P[Ac5c][NMeGly(cPent)]D-Morpholide; lactam N-11) | B (a compound having 3 or more and less than 10 is denoted as B) | B (a compound having 3 or more and less than 10 is denoted as B) |  | 8.60 |  |  |  |  |
| CCO[C@@H]1C[C@H]2C(=O)NC3(CCC3)C(=O)N(C)[C@@H](C3CCCC3)C(=O)N(C)[C@H](C(=O)N(C)C)CC(=O)N(C)[C@@H](Cc3cccc(Cl)c3)C(=O)N[C@@H]([C@@H](C)CC)C(=O)N(C)CC(=O)N(C)[C@H]3C/C=C\CCN(C3=O)[C@@H](Cc3ccc(C(F)(F)F)cc3)C(=O)N(C)CC(=O)N[C@@H](CCc3cc(F)c(C(F)(F)F)c(F)c3)C(=O)N2C1 [PP1127, (2S,8S,12R,14S,20S,23S,27S,30S,36S,38Z)-27-[(3-chlorophenyl)methyl]-20-cyclopentyl-8-[2-[3,5-difluoro-4-(trifluoromethyl)phenyl]ethyl]-12-ethoxy-N,N,4,19,22,26,32,35-octamethyl-30-[(1S)-1-methylpropyl]-3,6,9,15,18,21,25,28,31,34,42-undecaoxo-2-[[4-(trifluoromethyl)phenyl]methyl]spiro[1,4,7,10,16,19,22,26,29,32,35-undecazatricyclo[34.5.1.0^10,14]dotetracont-38-ene-17,1′-cyclobutane]-23-carboxamide] | AA (a compound having 20 or more is denoted as AA) | A (a compound having 10 or more and less than 20 is denoted as A) | 9.96 |  |  |  |  |  |
| CCCN1C(=O)[C@@H]2CCN2C(=O)CN(C)C(=O)[C@H]([C@@H](C)CC)NC(=O)[C@H](CC(C)C)N(C)C(=O)C[C@@H](C(=O)N(C)C)NC(=O)[C@H](C2CCCC2)N(C)C(=O)C2(CCC2)NC(=O)[C@@H]2CCCN2C(=O)[C@H](CCc2ccc(C(F)(F)F)c(Cl)c2)NC(=O)CN(C)C(=O)[C@@H]1Cc1ccc(C(F)(F)F)cc1 [PP0386] ([NMeL]I[Sar][Aze][NPrPhe(4-CF3)][Sar][hPhe(3-Cl-4-CF3)]P[Ac4c][NMeGly(cPent)]D-NMe2; lactam N-11) | C (A compound having a KD ratio of 0.1 or more and less than 3 is denoted as C) | B (a compound having 3 or more and less than 10 is denoted as B) |  | 9.16 |  |  |  |  |
| CCO[C@@H]1C[C@H]2C(=O)NC3(CCC3)C(=O)N(C)[C@@H](C3CCCC3)C(=O)N(C)[C@H](C(=O)N3CCOCC3)CC(=O)N(C)[C@@H](CC)C(=O)N[C@@H]([C@@H](C)CC)C(=O)N(C)CC(=O)N(C)[C@H]3CC(C)=CCN(C3=O)[C@@H](Cc3ccc(C(F)(F)F)cc3)C(=O)N(C)CC(=O)N[C@@H](CCc3cc(F)c(C(F)(F)F)c(F)c3)C(=O)N2C1 [PP1041] | C (A compound having a KD ratio of 0.1 or more and less than 3 is denoted as C) | C (A compound having a KD ratio of 0.1 or more and less than 3 is denoted as C) | 9.24 |  |  |  |  |  |
| CC[C@H](C)[C@@H]1NC(=O)[C@H](COC)N(C)C(=O)C[C@@H](C(=O)N(C)C)N(C)C(=O)[C@H](C2CCCC2)N(C)C(=O)C2(CC(C)(C)C2)NC(=O)[C@@H]2C[C@@H](OC(C)C)CN2C(=O)[C@H](CCc2cc(F)c(C(F)(F)F)c(F)c2)NC(=O)CN(C)C(=O)[C@H](CC2CCCCC2)N2CC/C=C\C[C@@H](C2=O)N(C)C(=O)CN(C2CC2)C1=O [PP2511] | A (a compound having 10 or more and less than 20 is denoted as A) | A (a compound having 10 or more and less than 20 is denoted as A) | 9.02 |  |  |  |  |  |
| CC[C@H](C)[C@@H]1NC(=O)[C@H](CC(C)C)N(C)C(=O)C[C@@H](C(=O)N2CCOCC2)N(C)C(=O)[C@H](C2CCCC2)N(C)C(=O)C2(CCCC2)NC(=O)[C@@H]2CCCN2C(=O)[C@H](CCc2cc(F)c(C(F)(F)F)c(F)c2)NC(=O)CN(C)C(=O)[C@H](Cc2ccc(C(F)(F)F)cc2)N2CCCC[C@@H](C2=O)N(C)C(=O)[C@@H]2CCCN2C1=O [PP0547] |  |  |  | 9.44 | B (a compound having 3 or more and less than 10 is denoted as B) | B (a compound having 3 or more and less than 10 is denoted as B) |  |  |
| CCCN1C(=O)CN(C)C(=O)[C@@H]2CCN2C(=O)[C@H]([C@@H](C)CC)NC(=O)[C@H](CC(C)C)N(C)C(=O)C[C@@H](C(=O)N(C)C)NC(=O)[C@H](C2CCCC2)N(C)C(=O)C2(CCC2)NC(=O)[C@@H]2CCCN2C(=O)[C@H](CCc2ccc(C(F)(F)F)c(Cl)c2)NC(=O)CN(C)C(=O)[C@@H]1Cc1ccc(C(F)(F)F)cc1 [PP0374] ([NMeL]I[Aze][Sar][NPrPhe(4-CF3)][Sar][hPhe(3-Cl-4-CF3)]P[Ac4c][NMeGly(cPent)]D-NMe2; lactam N-11) | B (a compound having 3 or more and less than 10 is denoted as B) | B (a compound having 3 or more and less than 10 is denoted as B) |  | 8.74 |  |  |  |  |
| CCC[C@H]1C(=O)N[C@@H]([C@@H](C)CC)C(=O)N(C)CC(=O)N(C)[C@H]2C/C=C\CCN(C2=O)[C@@H](Cc2ccc(C)cc2)C(=O)N(C)CC(=O)N[C@@H](CCc2ccc(Cl)c(Cl)c2)C(=O)N2C[C@H](OCC)C[C@H]2C(=O)NC2(CC(C)(C)C2)C(=O)N(C)[C@@H](C(CC)CC)C(=O)N(C)[C@H](C(=O)N(C)C)CC(=O)N1C [PP2184] | AA (a compound having 20 or more is denoted as AA) | A (a compound having 10 or more and less than 20 is denoted as A) | 9.15 |  |  |  |  |  |
| CCO[C@@H]1C[C@H]2C(=O)NC3(CC(C)(C)C3)C(=O)N(C)[C@@H](C3CCCC3)C(=O)N(C)[C@H](C(=O)N(C)CC)CC(=O)N(C)[C@@H](CC)C(=O)N[C@@H]([C@@H](C)CC)C(=O)N(C)CC(=O)N(C)[C@H]3C/C=C\CCN(C3=O)[C@@H](Cc3ccc(C(F)(F)F)cc3)C(=O)N(C)CC(=O)N[C@@H](CCc3ccc(C(F)(F)F)c(Cl)c3)C(=O)N2C1 [PP2823] |  |  |  | 9.89 |  |  | A (a compound having 10 or more and less than 20 is denoted as A) | A (a compound having 10 or more and less than 20 is denoted as A) |
| CC[C@H](C)[C@@H]1NC(=O)[C@H](CC(C)C)N(C)C(=O)C[C@@H](C(=O)N2CCOCC2)N(C)C(=O)[C@H](C2CCCC2)N(C)C(=O)C(C)(C)NC(=O)[C@@H]2CCCN2C(=O)[C@H](CCc2ccc(C(F)(F)F)c(Cl)c2)NC(=O)CN(C)C(=O)[C@H](Cc2ccc(C(F)(F)F)cc2)N(CC)C(=O)[C@@H]2CCN2C(=O)[C@H](C)N(C)C1=O [PP0221] ([NMeL]I[NMeA][Aze][NEtPhe(4-CF3)][Sar][hPhe(3-Cl-4-CF3)]P[Aib][NMeGly(cPent)][NMeD]-Morpholide; lactam N-11) | C (A compound having a KD ratio of 0.1 or more and less than 3 is denoted as C) | C (A compound having a KD ratio of 0.1 or more and less than 3 is denoted as C) |  | 9.72 |  |  |  |  |

Reference: patent US20240158446A1, “CYCLIC COMPOUND HAVING SELECTIVE INHIBITORY ACTION ON KRAS OVER HRAS AND NRAS” (CHUGAI SEIYAKU KABUSHIKI KAISHA, priority 2021, published 2024)
